Test results from PubChem BioAssay (NCI).
Several values for one entry are separate records, joined by “and”; a condition that tells them apart may be missing. Equal values may be shown once.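 Each compound was tested at five concentrations against cells in 96-well plates for 48 hours. GI50 marks 50% less growth. TGI denotes the concentration required for complete inhibition of growth.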

Assays:
Assay in all cases: DTP human tumour cell line panel, 48 h
[1] = system: SK-OV-3 ovarian
[2] = system: IGROV1 ovarian
[3] = system: U251 CNS
[4] = system: K-562 leukemia
[5] = system: SNB-75 CNS
[6] = system: MDA-MB-435
[7] = system: UACC-257 melanoma
[8] = system: HCT-15 colon
[9] = system: SK-MEL-2 melanoma
[10] = system: HOP-92 NSCLC

Row | Structure (SMILES) | TGI [1] | TGI [2] [µM] | TGI [3] [µM] | TGI [4] [µM] | TGI [5] | TGI [6] [µM] | TGI [7] [µM] | TGI [8] [µM] | TGI [9] [µM] | TGI [10] | GI50 [1] | GI50 [2] [nM] | GI50 [3] [nM] | GI50 [4] [µM] | GI50 [5] [nM] | GI50 [9] [nM] | GI50 [10] | GI50 [7] | GI50 [8] [µM] | GI50 [6] [µM]
1 | CC1(C)N[P+]2(Nc3ccccc3O2)OC1=O (centres undefined) | > 100 µM | > 100 | > 100 | > 100 | > 100 µM | 33.2 | > 100 | > 100 |  |  |  |  |  |  |  |  |  |  |  | 
2 | CNC(=O)OCc1[nH]ccc2c(C)c3nc4ccc(OC)cc4c3cc12 | > 100 µM | > 100 | > 59.5 | > 22.5 | > 100 µM |  | > 100 | > 21.9 | > 48 | > 100 µM |  |  |  |  |  |  |  |  |  | 
3 | COc1ccc(-c2ccccc2)cc1-c1c(Nc2cc(Cl)cc(Cl)c2O)c(=O)c1=O | 4.25 µM | > 50 | > 50 | > 50 | 3.61 µM |  | 4.77 | > 50 | > 50 | 2.81 µM | 1280 nM | 1760 | 1630 | 1.59 | 1030 | 1770 | 929 nM | 1440 nM | 1.5 | 
4 | CC(=O)O[C@H]1CC[C@@]2(C)C(=CC[C@@H]3C2CC[C@]2(C)Nc4[nH]ncc4CC32)C1 (some centres undefined) | > 100 µM | > 100 | 30.7 | 52.8 | > 100 µM |  | 30.8 | 32.8 | 72.7 |  |  |  |  |  |  |  |  |  |  | 
5 | O=C(O)c1ccc(C2C3C=CC(C3)C2[N+](=O)[O-])cc1 (centres undefined) | > 100 µM | > 100 | > 100 | > 100 | > 100 µM |  | > 100 | > 100 | > 100 |  |  |  |  |  |  |  |  |  |  | 
6 | COc1ccccc1NC(=O)C1=C(C)NC(C)=C(C(=O)Nc2ccccc2OC)C1c1cccc2c1OCO2 | > 100 µM | > 100 | > 100 | > 100 | 50.9 µM |  | > 100 | > 100 | > 100 | > 100 µM |  |  |  |  |  |  |  |  |  | 
7 | Cn1c(=O)oc2cc(C3CCC(=O)N3Cc3ccc(Cl)cc3)ccc21 (centres undefined) | > 100 µM | > 100 | > 100 | > 100 | > 100 µM |  | > 100 | > 100 | > 100 |  |  |  |  |  |  |  |  |  |  | 
8 | Nc1nc(SCCC/C=C/I)nc2c1ncn2C1OC(CO)C(O)C1O (centres undefined) | > 202 µM | > 202 | > 202 | > 202 | > 202 µM |  | > 202 | > 202 | > 202 | > 202 µM |  |  |  |  |  |  |  |  |  | 
9 | COC(=O)C1=Cc2c(cc(OC)c(OC)c2OC)[C@H](c2ccc(OC)c(OC)c2OC)C1C(=O)OC (some centres undefined) | > 100 µM | > 100 | > 100 | > 100 | > 100 µM |  | > 100 | > 100 |  | > 100 µM |  |  |  |  |  |  |  |  |  | 
10 | C=C1C(=O)O[C@H]2C[C@@H]1CCC1(C)OC1CC/C(C)=C/CC[C@H]2C (some centres undefined) | 37.1 µM | 96.8 | 31.5 | 41.2 |  | 34.6 | 37.2 | 31.1 | > 100 |  | 19300 nM | 35000 | 17700 | 21.6 |  | 48500 |  | 19200 nM | 17.3 | 18.9
11 | Clc1cc(Cl)cc(Nc2nc3ccccc3nc2-c2cccs2)c1 | 71.1 µM |  |  |  | > 100 µM |  | 60.4 | > 100 | > 100 | 38.1 µM |  |  |  |  |  |  |  |  |  | 
12 | CN(CCN(C)C(=O)CCOS(C)(=O)=O)C(=O)CCOS(C)(=O)=O | > 100 µM | > 100 | > 100 | > 100 | > 100 µM |  | > 100 | > 100 | > 100 | > 100 µM |  |  |  |  |  |  |  |  |  | 
13 | CCCCCCCCCCCCCCCCn1cc[n+](Cc2ccccc2)c1C | 4.67 µM and 1.81 µM | 2.29 |  |  | 0.899 µM |  | 11.2 |  | 3.26 |  | 1710 nM and 500 nM | 1090 |  |  | 262 | 1520 |  | 1270 nM |  | 
14 | CCC[CH2][Sn]1([CH2]CCC)[O]C(=O)CN=Cc2ccccc2[O]1 | 2.18 µM | > 100 | 1.09 | 1.27 | 0.849 µM |  | 0.419 | 1.56 | 0.555 | 0.519 µM | 922 nM | 2270 | 305 | 0.192 | 282 | 220 | 182 nM | 164 nM | 0.358 | 
15 | O=C(CCCn1ccnc1[N+](=O)[O-])NCCn1ccnc1[N+](=O)[O-] | > 100 µM | > 100 | > 100 | > 100 | > 100 µM | > 100 | > 100 | > 100 | > 100 |  |  |  |  |  |  |  |  |  |  | 
16 | COc1cc(OC)cc(-c2cncn2-c2ccc(-c3nc4cc(OC)cc(OC)c4s3)cc2)c1 | > 100 µM | > 100 | > 100 | > 100 | 17.9 µM |  | > 100 |  | > 100 |  | 4690 nM | 5070 | 4760 | 3.22 | 3280 | 9690 |  | > 100000 nM |  | 
17 | O=C(O)CCCNS(=O)(=O)c1ccc2ccccc2c1 | > 100 µM | > 100 | > 100 | > 100 | > 100 µM |  | > 100 | > 100 | > 100 | > 100 µM |  |  |  |  |  |  |  |  |  | 

Row | Structure (SMILES) | TGI [1] | TGI [2] [µM] | TGI [3] [µM] | TGI [4] [µM] | TGI [5] | TGI [6] [µM] | TGI [7] [µM] | TGI [8] [µM] | TGI [9] [µM] | TGI [10] | GI50 [1] | GI50 [2] [nM] | GI50 [3] [nM] | GI50 [4] [µM] | GI50 [5] [nM] | GI50 [9] [nM] | GI50 [10] | GI50 [7] | GI50 [8] [µM] | GI50 [6] [µM]
18 | COc1ccc(-c2nc3sc4c(c3c(=O)[nH]2)CCCC4)c2ccccc12 | 3.74 µM | > 100 |  | > 100 | 0.792 µM and 1.61 µM |  | > 100 | > 100 |  | 2.37 µM and 7.9 µM |  |  | 369 |  |  |  | 95.7 nM and 599 nM | 1560 nM and 4950 nM |  | 
19 | CCOC(=O)[C@H]1Nc2ccc(Cl)cc2[C@H]2c3ccccc3O[C@H]21 |  | > 100 | > 100 | > 100 | > 100 µM |  | > 100 | > 100 | > 100 |  |  |  |  |  |  |  |  |  |  | 
20 | Cc1cc2c(cc1Br)C1(C)CCC(C)C1(C)O2 (centres undefined) | > 100 µM | > 100 | 50.5 | 37.6 | > 100 µM |  | 98.8 | > 100 | 37.8 | 53.7 µM |  |  |  |  |  |  |  |  |  | 
21 | CCOC(=O)C(=O)Nc1ccc(Cl)c(C(F)(F)F)c1 | > 100 µM | > 100 | > 100 | > 100 | > 100 µM |  | > 100 | > 100 | > 100 |  |  |  |  |  |  |  |  |  |  | 
22 | NC(=O)c1c2c(cc3c(=O)c4ccccc4[nH]c13)CCCC2 | > 100 µM | > 100 | > 100 | > 97.3 | > 75 µM |  | > 100 | > 100 | > 100 | > 100 µM |  |  |  |  |  |  |  |  |  | 
23 | CC1CC2(CCC1OCc1ccccc1)OCCO2 (centres undefined) | > 100 µM | > 100 | > 100 | > 100 |  |  | > 100 | > 100 | > 100 | > 100 µM |  |  |  |  |  |  |  |  |  | 
24 | COc1ccc(C(O)/C(=C/n2ccnc2)c2ccccc2)cc1OC (centres undefined) | > 100 µM | > 100 | > 100 | > 100 | > 100 µM |  | > 100 | > 100 | > 100 | > 100 µM |  |  |  |  |  |  |  |  |  | 
25 | NC1=NC(c2ccc(F)cc2)C2=C(N1)c1ccc3ccccc3c1OCC2 (centres undefined) | > 100 µM | > 100 | > 100 | > 100 | 70.5 µM |  | > 100 | > 100 | > 100 | > 100 µM | 26800 nM | > 100000 | 8490 | 3.1 | 16500 | > 100000 | 36300 nM | 34200 nM | 3.25 | 
26 | COC(=O)[C@]12CC=C3O[C@@H]4OC5(CCCCC5)O[C@@H]4[C@H]3C1C(=O)C=CC2=O (some centres undefined) | 48.7 µM | 34.5 | 36.1 | 65 | 34.7 µM |  | 32.5 | 34.2 | 48.4 | 33.1 µM |  |  |  |  |  |  |  |  |  | 
27 | C=CCN(CC=C)CC(C(C)=O)C(c1ccccc1)c1c(O)c2ccccc2oc1=O (centres undefined) | > 100 µM | > 100 | > 100 | > 100 | > 100 µM |  | > 100 | > 100 | > 100 | > 100 µM |  |  |  |  |  |  |  |  |  | 
28 | NC(N)=N/N=C/c1c(-c2ccc(Cl)c([N+](=O)[O-])c2)nc2ccccn12 |  | 2.85 |  |  |  |  | 31 | 56.1 |  |  |  | 1360 |  |  |  |  |  | 6760 nM | 9.18 | 
29 | COc1ccc(-c2csc3c2-n2cccc2C3=O)cc1O | 18.1 µM | > 47.3 | > 47.4 | > 100 | > 100 µM | 0.0102 | > 100 | > 100 |  |  | 45.2 nM | 824 | 33.2 | < 0.01 | 28.1 |  |  | 1360 nM | < 0.0132 | < 0.01
30 | CC(=O)Nc1ccc(-c2nnc(SCC(=O)Nc3ccccc3C)o2)cc1 | > 100 µM | > 100 | > 100 | > 100 | > 100 µM |  | > 100 | > 100 | > 100 | > 100 µM |  |  |  |  |  |  |  |  |  | 
31 | COC(=O)n1c(CBr)c(Br)c2ccccc21 |  | 93.1 | 82.4 | > 100 | 47.1 µM |  | > 100 | > 100 | 47 | 68 µM |  |  |  |  |  |  |  |  |  | 
32 | O=CN1CCN(C=S)CC1 | > 100 µM | > 100 | > 100 | > 100 | > 100 µM |  | > 100 | > 100 |  | > 100 µM |  |  |  |  |  |  |  |  |  | 
33 | COc1ccc2c(c1)CCCC1C3=NCCC3(C)CSC21 (centres undefined) | > 100 µM | > 100 | > 100 | > 100 | > 100 µM |  |  |  |  |  |  |  |  |  |  |  |  |  |  | 
